{
  "source": "patent US6673354B2",
  "about": "“Compositions and methods for treating papillomavirus-infected cells” (priority 1998, dated 2004)",
  "key": {"[1]": {"system": "in vitro HPV16 DNA replication", "assay": "In vitro replication of HPV16 DNA (293 cell extract, EE-E1, HPV16 E2)", "assay_type": "biochemical", "conditions": "40 ng EE-E1 and 6 ng HPV16 E2, FIG. 7", "procedure": "In vitro replication reactions. In vitro replication reactions were essentially as described by Kuo et al. (18) in 25 μl reactions at 37° C. for indicated times. Standard reactions were for 2 hours, and were terminated by addition of 200 μl stop solution (20 mM Tris-HCl pH 7.5, 10 mM EDTA, 0.1% SDS, and 20 μg/ml RNase A). After incubation at 37° C. for 15 minutes, proteinase K was added (200 μg/ml) and incubation was continued 30 minutes. Samples were extracted with 250 μl phenol/chloroform/isoamyl alcohol (25:24:1), ethanol precipitated, washed with 70% ethanol, dried, resuspended in 20-30μl TE, and analyzed on a 0.8% agarose gel (TAE). The agarose gel was dried onto Hybond N+ membrane (Amersham), and replicated DNA was visualized by autoradiography. Bands were quantitated by Phosphorimager analysis. Replication templates were pKS7838-7905 (nt7838-7905/1-130) containing the HPV16 replication origin, and pUC7874-99 containing the HPV11 origin of replication (nt7874-7933/1-99). pUC7874-99 was a generously provided by Dr. Louise Chow.\nWe sought to establish a system for the study of HPV16 DNA replication in vitro, and to determine whether specific interaction between HPV16 E1 and E2 was required for HPV16 DNA replication in this system. […] As has been documented for other papillomavirus E1 proteins, some replication was observed using relatively large amounts of E1 in the absence of E2 (lanes 2 through 7) (6, 16, 22, 33, 40, 48). […] Replication in this assay is ori-dependent, since the small amount of replication of the pKS plasmid lacking the HPV16 origin detected at high concentrations of EE-E1 (FIG. 3B, lanes 1-6) was not stimulated by E2 (FIG. 1B, lanes 7-12).\nSince the E2N-WP23 and E2N-WP 15 peptides could inhibit interaction between […] E1 and E2, their ability to inhibit in vitro HPV16 DNA replication was also tested (FIGS. 7A and 7B)."}, "HPV11 E1/E2 interaction": {"target": "T1, HPV11 E1/E2 interaction (Human papillomavirus 11, UniProt P04014)", "T1 construct": "made in house; host or cells: Hi-Five insect cells infected with recombinant baculoviruses (gift from Louise Chow); nuclear extracts", "T1 sequence (P04014 whole entry, looked up)": "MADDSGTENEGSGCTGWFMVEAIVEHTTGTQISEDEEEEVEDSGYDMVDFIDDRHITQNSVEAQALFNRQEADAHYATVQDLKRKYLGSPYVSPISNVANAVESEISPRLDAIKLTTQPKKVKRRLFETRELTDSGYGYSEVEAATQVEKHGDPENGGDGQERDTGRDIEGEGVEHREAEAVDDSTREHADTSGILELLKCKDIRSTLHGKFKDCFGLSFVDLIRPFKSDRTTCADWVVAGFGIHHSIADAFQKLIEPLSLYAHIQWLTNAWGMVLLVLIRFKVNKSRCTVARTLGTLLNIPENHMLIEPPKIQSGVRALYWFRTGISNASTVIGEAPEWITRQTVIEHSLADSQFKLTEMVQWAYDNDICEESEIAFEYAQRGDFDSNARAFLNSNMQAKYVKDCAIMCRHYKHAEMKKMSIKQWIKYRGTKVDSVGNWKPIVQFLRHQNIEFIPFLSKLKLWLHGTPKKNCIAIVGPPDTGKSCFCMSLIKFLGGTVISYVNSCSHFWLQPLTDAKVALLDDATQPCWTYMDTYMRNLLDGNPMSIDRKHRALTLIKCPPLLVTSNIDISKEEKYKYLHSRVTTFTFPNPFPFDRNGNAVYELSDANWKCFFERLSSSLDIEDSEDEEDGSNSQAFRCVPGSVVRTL", "assay": "In vitro HPV E1-E2 binding assay, HPV11 E1 and HPV11 E2", "procedure": "In vitro HPV E1-E2 binding assay. 300-500 ng protein from HPV16 or HPV11 EE-E1 expressing recombinant baculovirus infected cell nuclear extracts and 80-120 ng from HPV E2 baculovirus infected cell nuclear extracts were incubated in 500 μl NET-gel buffer (50 mM Tris-HCl pH7.5, 150 mM NaCl, 0.1% NP-40, 1 mM EDTA, 0.25% gelatin) at 4° C. for one hour. 1-2 μg anti-EE monoclonal antibody was added and incubated with shaking at 4° C. for one hour. Immune complexes were precipitated with protein-G agarose beads and washed twice for 30 minutes with ice cold NET-gel buffer. Precipitated proteins were detected by Western blot using appropriate primary antibodies and anti-rabbit IgG HRP or anti-mouse IgG HRP (Amersham). Membranes were blocked for one hour in TNET (10 mM Tris 7.5, 2.5 mM EDTA, 50 mM NaCl, 0.1% Tween-20) containing 4% (w/v) dry milk. Washes and antibody reactions were carried out in TNET, and proteins were visualized by chemiluminescence (Reneaissance ECL, NEN) and autoradiography. Bands were quantitated using the NIH image program.\nVery little is known about the physical properties of domains within the papillomavirus E1 and E2 proteins that are involved in intermolecular recognition and association. […] The effect of the E2N-WP15 peptide on these interactions was also assessed. […]"}},
  "note": "Where no end group is shown, it is not given here.",
  "data": [
    {"sequence": "WKHMRLACAIYYKAR [E2N-MP15]", "values": [
      {"measurement": "inhibition of in vitro HPV16 DNA replication", "setting": "[1]", "value": "wild type peptides inhibited replication much more effectively than the respective E39A substituted analog"},
      {"measurement": "inhibition of HPV11 E1/E2 interaction", "setting": "HPV11 E1/E2 interaction", "value": "did not inhibit"}
    ]}
  ]
}
